Results taken from US20210255193A1, “LYSINE REACTIVE PROBES AND USES THEREOF” (The Scripps Research Institute, priority 2017, published 2021).

How the values were obtained:
[1] = molecular target: T1, PSME3 Proteasome activator complex subunit 3 (Homo sapiens, UniProt P61289); experiment: competitive isoTOP-ABPP; type: binding; parameters: key to isoTOP-ABPP reactivity ratio at lysine P61289_K237: R = MS1 peak area ratio, DMSO (heavy) / compound-treated (light); key to isoTOP-ABPP reactivity ratio at lysine P61289_K12: R = MS1 peak area ratio, DMSO (heavy) / compound-treated (light); capped at 20; conditions: 50 uM, in vitro; for isoTOP-ABPP reactivity ratio at lysine P61289_K12 / isoTOP-ABPP reactivity ratio at lysine P61289_K237: 231 sol; for isoTOP-ABPP ratio (R) at liganded lysine P61289_K12 / isoTOP-ABPP ratio (R) at liganded lysine P61289_K237: sol, 231
T1 construct: isoTOP-ABPP experiments performed in cell lysates (in vitro); endogenous in cells; host or cells: soluble proteome of human cancer cell lines (MDA-MB-231, Ramos, Jurkat)
Experimental: (§1) In vitro covalent fragment treatment for isoTOP-ABPP. All compounds were made up as solutions in DMSO (100×) and were used at a final concentration of 50 μM for activated esters and 100 μM for guanidinylating agents. For each profiling sample, 0.5 ml of lysate was treated with 5 μl of the 100× compound stock solution or 5 μl of DMSO. Samples were treated with activated esters for
(§2) STP-alkyne labeling and click chemistry. For concentration-dependent reactivity measurements by isoTOP-ABPP, 0.5 ml proteome aliquots were treated at ambient temperature with 1 mM STP-alkyne 1 (5 μl of 100 mM stock in DMSO) and 0.1 mM STP alkyne 1 (5 μl of 10 mM stock in DMSO), respectively. For competitive isoTOP-ABPP, after in vitro fragment treatment (detailed above), the samples were labeled for 1 h at ambient temperature with 0.1 mM STP-alkyne 1 (5 μl of 10 mM stock in DMSO). Samples were conjugated by copper-mediated azide-alkyne cycloaddition (CuAAC) to either the light (1 mM STP-alkyne or fragment treated) or heavy (0.1 mM STP-alkyne or DMSO treated) TEV tags (10 μl of 5 mM stocks in DMSO, final concentration=100 μM) using tris(2-carboxyethyl)phosphine hydrochloride
(§3) R value calculation and processing. The ratios of light and heavy MS1 peaks for each unique peptide were quantified with a CIMAGE software using default parameters (3 MS1 acquisitions per peak and signal to noise threshold set to 2.5). For reactivity measurements by isoTOP-ABPP, the R value was calculated from the ratio of MS1 peak areas, comparing the 1 mM STP alkyne sample (light TEV tag) with the 0.1 mM STP alkyne sample (heavy TEV tag). For competitive isoTOP-ABPP, the R value was calculated from the ratio of MS1 peak areas, comparing the DMSO treated sample (heavy TEV tag) with the compound treated sample (light TEV tag). […] Ratios for unique peptide entries are calculated for each experiment; overlapping peptides with the same modified lysine (for example, different charge states, MudPIT chromatographic steps or tryptic termini) are grouped together and the median ratio is reported as the final ratio (R). The peptide ratios reported by CIMAGE were further filtered to ensure the removal or correction of low-quality ratios in each individual data set. The quality filters applied were the following: removal of half tryptic peptides; for ratios with high standard deviations from the median (90% of the median or above) the lowest ratio was taken instead of the median; removal of peptides with R=20 and only a single MS2 event triggered during the elution of the parent ion; manual annotation of all the peptides with ratios of 20, removing any peptides with low quality elution profiles that remained after the previous curation steps (only done for competitive isoTOP-ABPP).
(§4) Cross-data processing for fragment screening. For compound treated samples, biological replicates of the same condition were averaged, if the standard deviation was below 60% of the mean; otherwise, for lysines with at least one R value <4 for a particular compound, the lowest value of the ratio set was taken. For lysines, where all R values for a particular compound were ≥4, the average was reported. For peptides containing several possible modified lysines, the lysine with the highest number of quantification events was used for analysis and the remaining, redundant peptides were reported as alternative modification sites. Peptides included in the aggregate dataset (those used for further bioinformatics and statistical analyses) were required to have been quantified in 2 experiments for competitive isoTOP-ABPP. Lysines were categorized as liganded, if they had at least one ratio R≥4 (hit fragments). For liganded lysines with R=20 for all liganding events, lysines were required to have been quantified with R=20 in two separate experiments and were further required to have been quantified with R<20 in one additional experiment.

HK1 Hexokinase-1 = molecular target: T2, HK1 Hexokinase-1 (Homo sapiens, UniProt P19367); experiment: competitive isoTOP-ABPP; type: binding; parameters: key to isoTOP-ABPP reactivity ratio at lysine P19367_K510: R = MS1 peak area ratio, DMSO (heavy) / compound-treated (light); conditions: 50 uM, in vitro; for isoTOP-ABPP reactivity ratio at lysine P19367_K510: 231 sol; for isoTOP-ABPP ratio (R) at liganded lysine P19367_K510: sol, 231
T2 construct: isoTOP-ABPP experiments performed in cell lysates (in vitro); endogenous in cells; host or cells: soluble proteome of human cancer cell lines (MDA-MB-231; Ramos and Jurkat also prepared)
T2 sequence (P19367 1-917): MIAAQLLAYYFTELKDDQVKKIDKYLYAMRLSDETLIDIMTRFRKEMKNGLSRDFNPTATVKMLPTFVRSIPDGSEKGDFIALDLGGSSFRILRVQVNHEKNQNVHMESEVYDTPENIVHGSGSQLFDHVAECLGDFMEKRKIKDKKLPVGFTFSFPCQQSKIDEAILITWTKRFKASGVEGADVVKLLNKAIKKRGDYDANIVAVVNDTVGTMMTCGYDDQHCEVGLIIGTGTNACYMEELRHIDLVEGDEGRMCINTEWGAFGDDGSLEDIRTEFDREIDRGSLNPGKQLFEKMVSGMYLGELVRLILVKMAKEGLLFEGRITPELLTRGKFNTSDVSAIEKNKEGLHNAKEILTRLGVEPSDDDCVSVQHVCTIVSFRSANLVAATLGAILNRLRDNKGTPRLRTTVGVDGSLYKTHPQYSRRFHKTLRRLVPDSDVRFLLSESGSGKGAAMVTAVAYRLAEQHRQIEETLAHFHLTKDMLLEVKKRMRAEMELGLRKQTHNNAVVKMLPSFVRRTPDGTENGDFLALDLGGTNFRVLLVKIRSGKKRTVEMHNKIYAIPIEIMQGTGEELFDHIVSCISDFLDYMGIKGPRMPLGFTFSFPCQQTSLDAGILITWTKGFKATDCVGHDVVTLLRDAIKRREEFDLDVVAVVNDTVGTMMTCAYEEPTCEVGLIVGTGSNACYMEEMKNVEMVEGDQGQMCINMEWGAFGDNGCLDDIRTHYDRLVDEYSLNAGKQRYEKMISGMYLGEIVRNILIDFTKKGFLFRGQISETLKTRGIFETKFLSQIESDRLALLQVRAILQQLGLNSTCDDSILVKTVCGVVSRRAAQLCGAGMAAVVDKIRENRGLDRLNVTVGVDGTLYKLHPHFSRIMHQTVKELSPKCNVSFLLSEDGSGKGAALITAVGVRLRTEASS
Experimental: as §1, §2, §3, §4

T1 sequence (P61289 whole entry, one chain of several): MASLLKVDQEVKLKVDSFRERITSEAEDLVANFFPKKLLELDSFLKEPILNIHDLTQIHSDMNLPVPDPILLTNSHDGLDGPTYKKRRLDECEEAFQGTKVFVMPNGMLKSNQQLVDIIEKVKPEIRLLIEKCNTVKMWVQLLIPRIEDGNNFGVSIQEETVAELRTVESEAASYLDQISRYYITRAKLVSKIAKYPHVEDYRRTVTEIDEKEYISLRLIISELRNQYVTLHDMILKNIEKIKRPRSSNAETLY

Structure (SMILES) | isoTOP-ABPP reactivity ratio at lysine P61289_K12 [1] | isoTOP-ABPP reactivity ratio at lysine P61289_K237 [1] | isoTOP-ABPP reactivity ratio at lysine P19367_K510 (HK1 Hexokinase-1) | isoTOP-ABPP ratio (R) at liganded lysine P61289_K12 [1] | isoTOP-ABPP ratio (R) at liganded lysine P19367_K510 (HK1 Hexokinase-1) | isoTOP-ABPP ratio (R) at liganded lysine P61289_K237 [1]
O=C(CCc1cn(-c2ccccc2)nc1-c1ccccc1)Oc1ccc([N+](=O)[O-])cc1[N+](=O)[O-] [fragment 29, 2,4-Dinitrophenyl 3-(1,3-diphenyl-1H-pyrazol-4-yl)propanoate] | 1.1 | 0.4 | 10.8 |  |  | 
O=C(Oc1ccc([N+](=O)[O-])cc1[N+](=O)[O-])C(c1ccccc1)c1ccccc1 [fragment 30, 2,4-Dinitrophenyl 2,2-diphenylacetate] |  | 4.3 | 1.0 |  |  | 
O=C(Oc1ccc([N+](=O)[O-])cc1[N+](=O)[O-])c1cc(C(F)(F)F)cc(C(F)(F)F)c1 [fragment 31, 2,4-Dinitrophenyl 3,5-bis(trifluoromethyl)benzoate] | 1.1 | 1.1 | 1.1 |  |  | 
Cn1cc(CC(=O)Oc2ccc([N+](=O)[O-])cc2[N+](=O)[O-])c2ccccc21 [fragment 32, 2,4-Dinitrophenyl 2-(1-methyl-1H-indol-3-yl)acetate] | 4.7 | 5.1 | 8.6 |  |  | 
COc1cc(CCC(=O)Oc2ccc([N+](=O)[O-])cc2[N+](=O)[O-])cc(OC)c1OC [fragment 33, 2,4-Dinitrophenyl 3-(3,4,5-trimethoxyphenyl)propanoate] | 2.1 | 1.1 | 20.0 |  |  | 
O=C(Oc1ccc([N+](=O)[O-])cc1[N+](=O)[O-])C1CCN(C(=O)OCc2ccccc2)CC1 [fragment 34, 1-Benzyl 4-(2,4-dinitrophenyl) piperidine-1,4-dicarboxylate] |  |  |  | 1.4 | 20.0 | 
O=C(Oc1ccc([N+](=O)[O-])cc1[N+](=O)[O-])c1ccc2ccccc2n1 [fragment 35, 2,4-Dinitrophenyl quinoline-2-carboxylate] |  |  |  | 0.7 | 1.1 | 0.8
O=C(CCc1coc2cc(F)ccc2c1=O)Oc1ccc([N+](=O)[O-])cc1[N+](=O)[O-] [fragment 36, 2,4-Dinitrophenyl 3-(7-fluoro-4-oxo-4H-chromen-3-yl)propanoate] |  |  |  |  | 3.7 | 1.4
O=C(Oc1ccc([N+](=O)[O-])cc1[N+](=O)[O-])c1ccc(-c2ccccc2)cc1 [fragment 37, 2,4-Dinitrophenyl [1,1′-biphenyl]-4-carboxylate] |  |  |  | 0.9 | 0.9 | 1.0
